Measurements reported in US20090023700A1, “NEUROPROTECTIVE TREATMENTS” (University of Louisville Research Foundation, priority 2007, published 2009).

What was measured:
[1] = Observation of overall health status, general behavior and grooming; type: in vivo, rat; conditions: any of the bpV(phen)- and PBS-treated groups
Protocol: Whether bpV(phen) might have detrimental side effects, such as inducing pain at the level of the injury, was tested. Severe spinal cord injury can induce hypersensitivity and mechanical allodynia (a painful response to a nonpainful tactile skin stimulus) at the level of injury. […] Differences between any of the bpV(phen)- and PBS-treated groups in the overall health status, general behavior, and grooming of the rats were not observed.

[2] = tested on: T9 contusive spinal cord injury; assay: Sensory-evoked potentials (SEP) after 0.4 mm T9 contusion; type: in vivo, rat; conditions: 0.4 mm contusion
RECA1 = RECA1 immunostaining (dorsal column blood vessels at epicenter) after T9 contusion; type: in vivo, rat; conditions: for area of blood vessels (RECA1) in the dorsal column: 7 d infusion started immediately after injury
Protocol: Another potential contributor to axon loss is ischemia caused by blood vessel loss. To test this possibility, the same sections were analyzed for the extent of endothelial cell/blood vessel sparing by immunostaining for RECA1. […] Therefore, epicenter RECA1 was measured in additional 7 d postinjury groups, excluding those infused at the epicenter and those with an epicenter transection (SEP), which damaged the tissue. The bpV(phen) treatment (started immediately after the injury) increased the area of blood vessels in the dorsal column in those rats infused with 30 and 100 μM bpV(phen) (FIG. 8E). […] However, there was no correlation between RECA1- and EC-stained dorsal column epicenter white matter (p=0.98).
Anterogradely labeled sensory fibers and terminals were visualized in every third section through both gracile nuclei by DAB-based immunostaining for CTB as described previously (Baker et al. (2007) Exp Neurol 205:82-91). The lumbar sections were stained to ensure that the CTB injections were successful as evidenced by traced afferents and motor neurons. […] The epicenter of maximal injury was determined by the rostrocaudal level with the least amount of spared white matter per transverse section. […]
Quantitative measurements and statistics. The extent of sensory innervation of the gracile nucleus was determined by measuring the CTB-labeled terminal fiber area in every third section as described previously (Baker et al. (2007) Exp Neurol 205:82-91). In short, images of every third section through the right and left gracile nuclei were analyzed using the density slice feature of the Scion Image software. […] Images of EC-stained sections were captured, and the positive areas were measured with Scion Image. […] The number of spared myelinated axons at C3 was counted in semithin sections using a 63× oil objective in 15.7×15.7 μm grids placed over the middle part of each fasciculus gracilis (see FIG. 4D-4F). […]

PTPs = conditions: cited from earlier work
cdc25B PTP = biological target: T1, cdc25B PTP (Mus musculus, UniProt P30306); conditions: mouse enzyme; cited from earlier work
T1 sequence (P30306 1-576): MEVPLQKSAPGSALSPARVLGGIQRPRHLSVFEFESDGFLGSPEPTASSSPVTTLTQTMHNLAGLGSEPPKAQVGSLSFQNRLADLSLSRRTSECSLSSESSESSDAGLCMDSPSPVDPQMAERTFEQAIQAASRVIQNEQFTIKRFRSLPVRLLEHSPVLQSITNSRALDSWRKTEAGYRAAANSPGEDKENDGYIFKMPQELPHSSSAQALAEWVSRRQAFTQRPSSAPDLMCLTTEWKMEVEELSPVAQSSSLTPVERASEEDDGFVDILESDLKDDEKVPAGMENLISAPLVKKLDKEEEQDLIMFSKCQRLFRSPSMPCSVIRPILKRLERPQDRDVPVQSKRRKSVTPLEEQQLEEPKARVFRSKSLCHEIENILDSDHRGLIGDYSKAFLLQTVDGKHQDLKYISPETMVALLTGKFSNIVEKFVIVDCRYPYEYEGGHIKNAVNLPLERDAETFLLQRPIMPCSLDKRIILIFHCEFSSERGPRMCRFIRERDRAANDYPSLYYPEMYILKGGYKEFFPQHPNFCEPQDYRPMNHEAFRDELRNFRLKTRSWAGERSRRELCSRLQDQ

rat cardiomyocytes = conditions: cited from earlier work
Ser/Thr phosphatases = conditions: cited from earlier work

O.O.O.OO.OO.[K+].[OH-].[V].c1cnc2c(c1)ccc1cccnc12 [bpV(phen), potassium bisperoxo(1,10-phenanthroline)oxovanadate (V)]
differences versus PBS groups in overall health status, general behavior and grooming [1]: not observed
SEP amplitude, group average ([2]; 100 μM 7 d lumbar infusion started immediately, one week after contusion, PBS 6+/−6, sham 16): 21+/−7 μV
rats with an SEP above background noise ([2]; 100 μM 7 d lumbar infusion, one week after contusion, PBS one of five): four of five
SEP amplitude, group average ([2]; 100 μM 7 d lumbar infusion, one week after termination of infusion, PBS 2+/−2, sham 36): 30+/−18 μV
rats with a detectable SEP ([2]; 100 μM 7 d lumbar infusion, one week after termination of infusion, PBS one rat): all rats
area of blood vessels (RECA1) in the dorsal column (RECA1; 30 μM): increased
area of blood vessels (RECA1) in the dorsal column (RECA1; 100 μM): increased
blood vessels (RECA1) in the dorsal column at the epicenter (RECA1; 7 d infusion started 4 h after injury, area not significantly different from sham): sparing
inhibition of PTPs (PTPs): inhibits
inhibition of catalytic activity of purified cdc25B PTP (cdc25B PTP): can inhibit
glutathione concentration (rat cardiomyocytes): does not change
inhibition of Ser/Thr phosphatases (Ser/Thr phosphatases): not
